Measurements as given in ChEMBL document CHEMBL1137322, “Arylmethyloxyphenyl derivatives: small molecules displaying P-glycoprotein inhibition” (J Med Chem, 2006).
Active and inactive are the calls of the source. No cut-off for these calls is given here.

Tests used:
[1] = target: T1, ATP-dependent translocase ABCB1 (Homo sapiens, UniProt P08183); test: Inhibition of Pgp measured as inhibition of [3H]vinblastine basolateral to apical transport in Caco-2 cells; type: functional, cell-based
Caco-2 [2] = test: Inhibition of ATPase measured as increase in ATP level in Caco-2 cells at 20 uM relative to vinblastine after 120 mins; type: functional, Homo sapiens; parameters: scale not given: the % may be the effect or the level left
[3] = target: T1, ATP-dependent translocase ABCB1; test: Inhibition of Pgp measured as doxorubicin accumulation in MCF7/Adr cells at 20 nM by flow cytometry; type: functional, cell-based; details: nci/adr-res, 0.02 µM
[4] = target: T2, 5-hydroxytryptamine receptor 1A (Homo sapiens, UniProt P08908); test: Binding affinity to 5HT1A receptor
T2 sequence (P08908 whole entry): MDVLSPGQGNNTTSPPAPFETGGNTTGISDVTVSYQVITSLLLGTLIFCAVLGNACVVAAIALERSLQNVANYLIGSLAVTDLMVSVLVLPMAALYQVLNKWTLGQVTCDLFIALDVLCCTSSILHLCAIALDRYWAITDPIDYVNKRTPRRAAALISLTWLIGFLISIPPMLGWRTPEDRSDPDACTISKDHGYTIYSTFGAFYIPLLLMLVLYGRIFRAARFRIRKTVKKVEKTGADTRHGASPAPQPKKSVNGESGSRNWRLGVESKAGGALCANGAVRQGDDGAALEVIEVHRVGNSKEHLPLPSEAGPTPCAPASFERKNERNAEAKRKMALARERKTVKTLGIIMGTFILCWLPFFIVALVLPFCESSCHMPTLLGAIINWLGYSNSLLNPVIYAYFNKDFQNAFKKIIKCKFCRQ

Caco-2 [5] = test: Inhibition of vinblastine-induced ATPase activation in Caco-2 cells; type: functional
D(2) dopamine receptor = D(2) dopamine receptor (Homo sapiens, UniProt P14416); test: Binding affinity to D2 receptor
D(2) dopamine receptor, sequence (P14416 whole entry): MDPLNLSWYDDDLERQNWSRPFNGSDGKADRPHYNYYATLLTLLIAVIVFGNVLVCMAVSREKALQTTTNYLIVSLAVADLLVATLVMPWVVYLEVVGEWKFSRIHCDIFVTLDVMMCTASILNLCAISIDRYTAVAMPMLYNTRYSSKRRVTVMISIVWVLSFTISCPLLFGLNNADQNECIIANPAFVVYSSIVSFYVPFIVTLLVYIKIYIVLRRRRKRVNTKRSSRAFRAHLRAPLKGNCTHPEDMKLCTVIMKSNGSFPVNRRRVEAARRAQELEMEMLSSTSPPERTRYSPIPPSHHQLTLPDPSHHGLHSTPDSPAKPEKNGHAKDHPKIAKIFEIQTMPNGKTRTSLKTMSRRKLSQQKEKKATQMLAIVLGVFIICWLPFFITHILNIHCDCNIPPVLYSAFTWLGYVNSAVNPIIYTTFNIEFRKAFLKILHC

NCI/ADR-RES = test: Cytotoxicity against MCF7/Adr cells at 100 uM after 48 hrs; type: functional, Homo sapiens
Caco-2 [6] = test: Inhibition of ATPase measured as ATP availability in Caco-2 cells at 20 nM after 60 mins relative to control; type: functional, Homo sapiens; parameters: scale not given: the % may be the effect or the level left
Caco-2 [7] = test: Inhibition of ATPase measured as ATP availability in Caco-2 cells at 20 nM after 90 mins relative to control; type: functional, Homo sapiens; parameters: scale not given: the % may be the effect or the level left
Caco-2 [8] = test: Inhibition of ATPase measured as ATP availability in Caco-2 cells at 20 nM after 120 mins relative to control; type: functional, Homo sapiens; parameters: scale not given: the % may be the effect or the level left

T1 sequence (P08183 whole entry): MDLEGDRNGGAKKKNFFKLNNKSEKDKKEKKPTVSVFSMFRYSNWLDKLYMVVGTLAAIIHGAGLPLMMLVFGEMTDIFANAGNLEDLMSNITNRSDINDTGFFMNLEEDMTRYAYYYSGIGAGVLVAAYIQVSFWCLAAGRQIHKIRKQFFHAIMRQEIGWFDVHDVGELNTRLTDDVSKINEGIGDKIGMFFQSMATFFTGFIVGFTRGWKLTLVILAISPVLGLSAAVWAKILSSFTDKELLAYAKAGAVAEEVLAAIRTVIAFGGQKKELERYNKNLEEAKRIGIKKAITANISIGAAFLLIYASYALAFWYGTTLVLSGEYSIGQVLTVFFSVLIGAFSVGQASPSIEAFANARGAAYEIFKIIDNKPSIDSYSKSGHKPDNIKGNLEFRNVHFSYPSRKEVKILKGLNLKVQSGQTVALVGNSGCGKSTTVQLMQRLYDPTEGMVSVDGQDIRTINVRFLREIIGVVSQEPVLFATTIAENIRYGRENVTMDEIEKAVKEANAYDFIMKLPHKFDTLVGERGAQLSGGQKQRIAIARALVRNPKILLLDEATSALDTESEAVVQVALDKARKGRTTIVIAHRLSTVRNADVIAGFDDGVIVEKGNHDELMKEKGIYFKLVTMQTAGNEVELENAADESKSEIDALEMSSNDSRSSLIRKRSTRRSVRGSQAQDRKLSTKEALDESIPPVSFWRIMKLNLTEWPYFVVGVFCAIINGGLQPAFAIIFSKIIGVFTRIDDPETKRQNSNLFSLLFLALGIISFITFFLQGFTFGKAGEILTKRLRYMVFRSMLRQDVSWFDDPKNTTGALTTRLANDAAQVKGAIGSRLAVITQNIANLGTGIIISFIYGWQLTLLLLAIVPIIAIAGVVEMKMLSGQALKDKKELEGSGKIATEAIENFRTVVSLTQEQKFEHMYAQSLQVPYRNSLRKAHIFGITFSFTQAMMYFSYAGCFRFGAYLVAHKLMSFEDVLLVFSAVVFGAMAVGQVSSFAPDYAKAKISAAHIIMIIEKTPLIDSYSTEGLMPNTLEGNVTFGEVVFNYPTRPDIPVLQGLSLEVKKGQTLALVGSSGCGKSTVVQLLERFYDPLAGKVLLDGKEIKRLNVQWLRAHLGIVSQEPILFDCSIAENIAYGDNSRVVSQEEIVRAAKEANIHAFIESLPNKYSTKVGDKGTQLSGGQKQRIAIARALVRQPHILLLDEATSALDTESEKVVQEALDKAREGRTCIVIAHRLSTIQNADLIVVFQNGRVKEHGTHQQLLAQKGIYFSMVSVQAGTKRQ

| Compound | EC50 [1] [µM] | Activity (Caco-2 [2]) [%] | Activity [3] | Ki [4] [µM] | Activity (Caco-2 [5]; Homo sapiens) | Ki (D(2) dopamine receptor) [µM] | Activity (NCI/ADR-RES) [%] | Activity (Caco-2 [5]) [µM] | Activity (Caco-2 [6]) [%] | Activity (Caco-2 [7]) [%] | Activity (Caco-2 [8]) [%] |
| --- | --- | --- | --- | --- | --- | --- | --- | --- | --- | --- | --- |
| COc1cccc(CCc2ccccc2OCc2cccc(OC)c2)c1 | 17.2 | 41 | Active | 5 | inactive | 5 | 8 |  |  |  |  |
| COc1cccc(CCc2ccccc2OCc2cccnc2)c1 |  |  |  | 5 |  | 5 | 8 | 400 |  |  |  |
| COc1cccc(CCc2ccccc2OCc2ccccc2)c1 | 92.8 | 19 |  | 5 | inactive | 5 | 8 |  |  |  |  |
| COc1cc2c(cc1OC)CN(CCc1ccc(NC(=O)c3cccc4c(=O)c5cccc(OC)c5[nH]c34)cc1)CC2 |  |  |  |  | inactive |  |  |  |  |  |  |
| c1ccc(CCc2ccccc2OCc2ccccn2)cc1 | 100 | 15 |  | 5 | inactive | 5 | 8 |  |  |  |  |
| COc1cccc(CCc2ccccc2OCc2ccccn2)c1 | 27.6 | 41 | Active | 5 | inactive | 5 | 8 |  |  |  |  |
| c1ccc(CCc2ccccc2OCc2cccnc2)cc1 | 125 |  |  | 5 |  | 5 | 8 | 100 |  |  |  |
| COc1ccc(CCN(C)CCCC(C#N)(c2ccc(OC)c(OC)c2)C(C)C)cc1OC (centres undefined) |  |  |  |  |  |  | 95 |  |  |  |  |
| CC[C@]1(O)C[C@@H]2CN(CCc3c([nH]c4ccccc34)[C@@](C(=O)OC)(c3cc4c(cc3OC)N(C)[C@H]3[C@@](O)(C(=O)OC)[C@H](OC(C)=O)[C@]5(CC)C=CCN6CC[C@]43[C@@H]65)C2)C1 [VINBLASTINE] |  |  |  |  |  |  |  |  | 81 | 72 | 42 |
| c1ccc(CCc2ccccc2OCc2ccccc2)cc1 |  |  |  | 5 |  | 5 | 8 | 50 |  |  |  |
